In general, pIC50 refers to the IC50 on a negative log10 scale, so that one unit is a factor of ten. Usually inhibition stands for the percentage by which the read-out fell short of the control. Read a high inhibition as strong suppression.

pIC50: −log10 of the molar value. Where only a bound is given, the exact number is not on record here.

In assay [1] the target is angiotensin II AT1 receptor. Briefly: Assay A: Angiotensin II binding activity (125I-AII displacement, rat uterine membrane preparation). As to the method:
Assay A: Antiotensin II Binding Activity
Compounds of the invention were tested for ability to bind to the smooth muscle angiotensin II receptor using a rat uterine membrane preparation. […] Rat uterine membranes were prepared from fresh tissue. All procedures were carried out at 4° C. Uteri were stripped of fat and homogenized in phosphate-buffered saline at pH 7.4 containing 5 mM EDTA. The homogenate was centrifuged at 1500×g for 20 min., and the supernatant was recentrifuged at 100,000×g for 60 min. The pellet was resuspended in buffer consisting of 2 mM EDTA and 50 mM Tris-HCl (pH 7.5) to a final protein concentration of 4 mg/ml. […] The reaction was initiated by the addition of membrane protein and the mixture was incubated at 25° C. for 60 min. The incubation was terminated with ice-cold 50 mM Tris-HCl (pH 7.5) and the mixture was filtered to separate membrane-bound labelled peptide from the free ligand. The incubation tube and filter were washed with ice-cold buffer. Filters were assayed for radioactivity in a Micromedic gamma counter.
Nonspecific binding was defined as binding in the presence of 10 μM of unlabelled AII. Specific binding was calculated as total binding minus nonspecific binding. […] Binding data were analyzed by a nonlinear least-squares curve fitting program.

Assay [2] relates to pressor response to AII. Put plainly: Assay C: In vivo intragastric pressor assay response for AII antagonists. The arrangement: species or system rat. Conditions: intragastric, or intraduodenal for examples listed; for inhibition at 3 mg/kg / Assay C Duration: dose 3 mg/kg. As for the experimental part: Assay C: In Vivo Intragastric Pressor Assay Response for AII Antagonists
Male Sprague-Dawley rats weighing 225-300 grams were anesthetized with methohexital (30 mg/kg, i.p.) and catheters were implanted into the femoral artery and vein. The catheters were tunneled subcutaneously to exit dorsally, posterior to the head and between the scapulae. The catheters were filled with heparin (1000 units/ml of saline). The rats were returned to their cage and allowed regular rat chow and water ad libitum. After full recovery from surgery (3-4 days), rats were placed in Lucite holders and the arterial line was connected to a pressure transducer. Arterial pressure was recorded on a Gould polygraph (mmHg). Angiotensin II was administered as a 30 ng/kg bolus via the venous catheter delivered in a 50 μl volume with a 0.2 ml saline flush. The pressor response in mm Hg was measured by the differer.-:e from pre-injection arterial pressure to the maximum pressure achieved. The AII injection was repeated every 10 minutes until three consecutive injections yielded responses within 4 mmHg of each other. These three responses were then averaged and represented the control response to AII. The test compound was suspended in 0.5% methylcellulose in water and was administered by gavage. The volume administered was 2 ml/kg body weight. The standard dose was 3 mg/kg. Angiotensin II bolus injections were given at 30, 45, 60, 75, 120, 150, and 180 minutes after gavage. The pressor response to AII was measured at each time point. The rats were then returned to their cage for future testing. A minimum of 3 days was allowed between tests. Percent inhibition was calculated for each time point following gavage by the following formula:
[(Control Response—Response at time point)/Control Response]×100.

The compound `CCCCn1nc(C(O)CCC)nc1Cc1ccc(-c2ccccc2-c2nnn[nH]2)nc1` (stereo not shown) [Compound 159] gave a pIC50 in assay [1] of 7.68. In assay [2] (Rattus norvegicus), the inhibition at 3 mg/kg was 10%. Also, the “Assay C Duration” value in assay [2] is 150 min.
`CCCCc1nc(CCCC)n(Cc2ccc(-c3ccccc3C(=O)NNS(=O)(=O)C(F)(F)F)cc2)n1` [compound 5]: 30 mg/kg produced 38% inhibition in assay [2] (Rattus norvegicus).
For `CCCCc1cn(C2CCCCC2)c(=O)n1Cc1ccc(-c2ccccc2-c2nnn[nH]2)nc1` [Compound 205], in assay [1], the pIC50 was 7.70. Further, the inhibition at 3 mg/kg in assay [2] (Rattus norvegicus) turned out to be 40%. For the same compound, in assay [2], the “Assay C Duration” value was above 180 min.
As to `CCCCc1cn(-c2c(OC)cccc2OC)c(=O)n1Cc1ccc(-c2ccccc2-c2nnn[nH]2)nc1` [Compound 230], the pIC50 in assay [1] was 8.59. In assay [2] (Rattus norvegicus), this compound showed an inhibition at 3 mg/kg of 25%. The “Assay C Duration” value in assay [2] is above 180 min.
Take `CCCCc1nc(CCCC)n(Cc2ccc(-c3ccccc3-c3nnn[nH]3)nc2)n1` [Compound 241]: the inhibition at 3 mg/kg in assay [2] (Rattus norvegicus) amounted to 40%.
In assay [1], `CCCCc1cn(CC(CC)CC)c(=O)n1Cc1ccc(-c2ccccc2-c2nnn[nH]2)nc1` [Compound 204] showed a pIC50 of 7.80. The compound further gave an inhibition at 3 mg/kg in assay [2] (Rattus norvegicus) of 75%. Also, the “Assay C Duration” value in assay [2] is above 180 min.
The matching figures for `CCCCCn1cc(CCCC)n(Cc2ccc(-c3ccccc3-c3nnn[nH]3)nc2)c1=O` [Compound 199]: 8.00, 60% and above 180 min.
The matching figures for `CCCCc1cn([C@H]2[C@H](C)CCC[C@@H]2C)c(=O)n1Cc1ccc(-c2ccccc2-c2nnn[nH]2)nc1` [Compound 236]: 8.31, 70% and above 180 min.
The compound `CCCCn1nc(C(=O)N(C)C(C)(C)C)nc1Cc1ccc(-c2ccccc2-c2nnn[nH]2)nc1` [Compound 171] gave a pIC50 in assay [1] of 7.55. The compound further showed an inhibition at 3 mg/kg in assay [2] (Rattus norvegicus) of 0%. For the same compound, in assay [2], the “Assay C Duration” value was 0 min.
In the same order, the values of `CCCCc1cn(-c2ccccc2Cl)c(=O)n1Cc1ccc(-c2ccccc2-c2nnn[nH]2)nc1` [Compound 216] are 8.27, 50% and above 180 min.
`CCCc1cn(CCC)c(=O)n1Cc1ccc(-c2ccccc2-c2nnn[nH]2)nc1` [Compound 186] gave a pIC50 in assay [1] of 7.42. For the same compound, in assay [2] (Rattus norvegicus), testing at 3 mg/kg gave an inhibition of 25%. Also, the “Assay C Duration” value in assay [2] was 180 min.
Compound `CCCCc1cn(CCc2ccccc2)c(=O)n1Cc1ccc(-c2ccccc2-c2nnn[nH]2)nc1` [Compound 210] gave a pIC50 in assay [1] of 8.44. This compound had an inhibition at 3 mg/kg in assay [2] (Rattus norvegicus) of 15%. Further, in assay [2], the “Assay C Duration” value stood at 180 min.
The compound `CCCCn1cc(CCC2CC2)n(Cc2ccc(-c3ccccc3-c3nnn[nH]3)nc2)c1=O` [Compound 193] had a pIC50 in assay [1] of 7.96. The compound further showed an inhibition at 3 mg/kg in assay [2] (Rattus norvegicus) of 10%. The “Assay C Duration” value in assay [2] was determined as 180 min.
As to `CCCCc1cn(-c2c(C)cccc2Cl)c(=O)n1Cc1ccc(-c2ccccc2-c2nnn[nH]2)nc1` [Compound 231], the negative logarithm of the IC50 (pIC50) in assay [1] was 8.44. This compound also yielded an inhibition at 3 mg/kg in assay [2] (Rattus norvegicus) of 75%. For the same compound, the “Assay C Duration” value in assay [2] was above 180 min.
In assay [2] (Rattus norvegicus), `CCCCc1nc(C(F)(F)CCC)nn1Cc1ccc(-c2ccccc2-c2nnn[nH]2)cc1` [compound 10] yielded an inhibition at 3 mg/kg of 86% and an inhibition at 30 mg/kg of 100%.
Take `CCCCn1nc(C2OCC(C)(C)CO2)nc1Cc1ccc(-c2ccccc2-c2nnn[nH]2)nc1` [Compound 181]: the pIC50 in assay [1] is 7.68. Further, in assay [2] (Rattus norvegicus), the inhibition at 3 mg/kg is 20%. Also, the “Assay C Duration” value in assay [2] amounted to 180 min.
`CCCCc1cn(CC(C)(C)C)c(=O)n1Cc1ccc(-c2ccccc2-c2nnn[nH]2)nc1` [Compound 202] gave a pIC50 in assay [1] of 7.92. In assay [2] (Rattus norvegicus), this compound displayed an inhibition at 3 mg/kg of 65%. Also, in assay [2], the “Assay C Duration” value is above 180 min.
In the same order, the values of `CCCCc1cn(CCC2CCCC2)c(=O)n1Cc1ccc(-c2ccccc2-c2nnn[nH]2)nc1` [Compound 211] are 7.74, 35% and above 180 min.
In the same order, the values of `CCCCc1cn(-c2ccccc2CC)c(=O)n1Cc1ccc(-c2ccccc2-c2nnn[nH]2)nc1` [Compound 228] are 8.35, 80% and above 180 min.
In assay [1], `CCCCc1cn(-c2ccccc2C)c(=O)n1Cc1ccc(-c2ccccc2-c2nnn[nH]2)nc1` [Compound 217] had a pIC50 of 8.03. Moreover, in assay [2] (Rattus norvegicus), at 3 mg/kg the inhibition was 65%. Also, the “Assay C Duration” value in assay [2] was above 180 min.
The compound `CCCCc1nn(CC(=O)c2ccccc2)c(=O)n1Cc1ccc(-c2ccccc2-c2nn[nH]n2)cc1` [Compound 82] showed a pIC50 in assay [1] of 8.10. The “Assay C Inhibition” value in assay [2] (dose cell empty (dose not given)) amounted to 20%.
`CCCCn1nc(CCc2cccs2)nc1Cc1ccc(-c2ccccc2-c2nnn[nH]2)nc1` [Compound 153] had a pIC50 in assay [1] of 7.89. The inhibition at 3 mg/kg in assay [2] (Rattus norvegicus) was 25%. Further, the “Assay C Duration” value in assay [2] is above 180 min.
The matching figures for `CCCCc1cn(CCCC)c(=O)n1Cc1ccc(-c2ccccc2-c2nnn[nH]2)cn1` [Compound 223]: 7.85, 20% and above 180 min.
`CCCCc1cn(-c2c(F)cccc2F)c(=O)n1Cc1ccc(-c2ccccc2-c2nnn[nH]2)nc1` [Compound 220]: the pIC50 in assay [1] is 8.15. This compound also came in with an inhibition at 3 mg/kg in assay [2] (Rattus norvegicus) of 75%. The “Assay C Duration” value in assay [2] was found to be 120 min.
In the same order, the values of `CCCCc1cn(CCC2CC2)c(=O)n1Cc1ccc(-c2ccccc2-c2nnn[nH]2)nc1` [Compound 206] are 8.27, 30% and above 180 min.
In assay [1], `CCCCc1cn(-c2ccccc2C(C)(C)C)c(=O)n1Cc1ccc(-c2ccccc2-c2nnn[nH]2)nc1` [Compound 229] had a pIC50 of 7.72. This compound also gave an inhibition at 3 mg/kg in assay [2] (Rattus norvegicus) of 40%. Further, in assay [2], the “Assay C Duration” value is above 180 min.
Take `CCCCc1nc(CCCC)n(Cc2ccc(-c3ccccc3-c3nnn[nH]3)cc2)n1` [compound 3]: in assay [2] (Rattus norvegicus), at 10 mg/kg the inhibition was 50% and the inhibition at 30 mg/kg stood at 100%.
The matching figures for `CCCCc1nc(CCCC)n(Cc2ccc(-c3ccccc3C(=O)O)cc2)n1` [compound 2]: 95% and 98%.
For `CCCCc1nc(Cl)n(Cc2ccc(-c3ccccc3-c3nnn[nH]3)cc2)n1` [compound 9], the inhibition at 30 mg/kg in assay [2] (Rattus norvegicus) was 80%. Moreover, at 100 mg/kg the inhibition in assay [2] (Rattus norvegicus, dose 100 mg/kg) was 100%.
Regarding `CCCCc1nn(C/C=C/c2ccccc2)c(=O)n1Cc1ccc(-c2ccccc2-c2nn[nH]n2)cc1` [Compound 105], the pIC50 in assay [1] is 6.54.
With `CCCCc1cn(-c2ccccc2)c(=O)n1Cc1ccc(-c2ccccc2-c2nnn[nH]2)nc1` [Compound 215], in assay [1], the pIC50 was 7.35.
Still for that read-out and setting: to `CCCCc1nc(-c2ccccc2C)nn1Cc1ccc(-c2ccccc2-c2nnn[nH]2)nc1` [Compound 261] belongs 7.74.
The same measure, in the same setting: to `CCCCn1cc(CCC(C)C)n(Cc2ccc(-c3ccccc3-c3nnn[nH]3)nc2)c1=O` [Compound 189] belongs 7.54; to `CCCCc1nc(CC(CC)CC)nn1Cc1ccc(-c2ccccc2-c2nnn[nH]2)nc1` [Compound 251], 7.60; to `CCCCc1cn(C23CC4CC(CC(C4)C2)C3)c(=O)n1Cc1ccc(-c2ccccc2-c2nnn[nH]2)nc1` [Compound 214], 7.19.
On the same count and under the same terms, under `CCCCc1nn(CCCCC(=O)OC)c(=O)n1Cc1ccc(-c2ccccc2-c2nn[nH]n2)cc1` [Compound 100] stands 8.36; under `CCCCc1nc(C(F)F)n(Cc2ccc(-c3ccccc3-c3nnn[nH]3)cc2)n1` [Compound 48], 6.17; under `CCCCc1cn(CCCC)c(=O)n1Cc1ccc(-c2cccnc2-c2nnn[nH]2)cc1` [Compound 227], 7.05.
In the case of `CCCCn1cc(CC(C)C)n(Cc2ccc(-c3ccccc3-c3nnn[nH]3)nc2)c1=O` [Compound 188], in assay [1], the pIC50 is 6.85.

The values are drawn from patent US6653306B1, “Epoxy-steroidal aldosterone antagonist and angiotensin II antagonist combination therapy” (G.D. Searle & Co., priority 1995, dated 2003).
